Patent publication EP4725957A1, “GROUP OF CYCLIC ALKALINE LIPOPEPTIDE COMPOUNDS, AND PREPARATION METHOD THEREFOR AND USE THEREOF” (Institute of Medicinal Biotechnology, Chinese Academy of …, priority 2023, dated 2024)
Converted amounts (≈) assume the structure as drawn. Bridge positions count the residues as written; N and C are the ends. Square brackets hold non-standard residues; d marks the D form. Peptide text beside a SMILES is read from it. * marks the point of attachment. Heptanoyl(6-Me) = CC(C)CCCCC(=O)*; dOrn = NCCC[C@@H](N)C(=O)O; Nonanoyl = CCCCCCCCC(=O)*; X1 = CC[C@H](C)CCCCC(=O)*; Heptanoyl = CCCCCCC(=O)*; Octanoyl = CCCCCCCC(=O)*; Orn = NCCC[C@H](N)C(=O)O; dDap = NC[C@@H](N)C(=O)O; Dab = NCC[C@H](N)C(=O)O

Assays:
Type in all cases: cell-based
[1] = system: Pseudomonas aeruginosa ATCC 27853; settings: ATCC 27853
Method in brief: (§1)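 The MIC value comes from CLSI broth microdilution after 16-20 h at 35-37°C. Cyclic lipopeptides in Mueller-Hinton broth spanned 64 to 0.03 mg/L final, with each well carrying (2-4) × 10^5 CFU/mL.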

[2] = system: Klebsiella pneumoniae KPN+19-15; settings: KPN+19-15
Method in brief: as §1

[3] = system: Acinetobacter baumannii ABA19-1; settings: ABA19-1
Method in brief: as §1

[4] = system: Escherichia coli ATCC BAA-2340 (KPC); settings: ATCC BAA-2340
Method in brief: as §1

[5] = system: Klebsiella pneumoniae ATCC BAA-1705 (KPC); settings: ATCC BAA-1705
Method in brief: as §1

[6] = system: Pseudomonas aeruginosa PAE19-3; settings: PAE19-3
Method in brief: as §1

[7] = system: Acinetobacter baumannii NCTC 13304 (OXA-27); settings: NCTC 13304
Method in brief: as §1

[8] = system: Escherichia coli ATCC BAA-2523; settings: ATCC BAA-2523
Method in brief: as §1

[9] = Nephrotoxicity assay: in vitro cytotoxicity of HK-2 cells by CCK-8 assay; settings: human, HK-2 cells (human renal), 72 h incubation with drug-containing medium
Method in brief: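 Compounds in sterile water, diluted to final 500, 250, 200, 100, 50, 25 and 12.5 µg/mL, were applied for 72 h to human HK-2 kidney cells. Absorbance at 450 nm after 3 h CCK-8 gave viability against untreated wells, and IC50 came from logarithmic regression; three replicates.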

Compound	MIC [1]	MIC [2]	MIC [3]	MIC [4]	MIC [5]	MIC [6]	MIC [7]	MIC [8]	IC50 at 72 h [9]
CCCCCCC(=O)N[C@@H](CCN)C(=O)N[C@H](C(=O)N[C@H](CCCN)C(=O)N[C@H]1CCNC(=O)[C@H]([C@@H](C)O)NC(=O)[C@H](CCN)NC(=O)[C@H](CCN)NC(=O)[C@H]([C@@H](C)O)NC(=O)[C@@H](Cc2ccccc2)NC(=O)[C@H](CCN)NC1=O)[C@@H](C)O [Compound 24, Heptanoyl-Dab-Thr-D-Orn-ring(4-10)[Dab-Dab-D-Phe-Thr-Dab-Dab-Thr]] (Heptanoyl-[Dab]T[dOrn][Dab][Dab][dF]T[Dab][Dab]T; lactam 4-C)	0.5 µg/mL (≈ 0.425 µM)	0.125 µg/mL (≈ 0.106 µM)	0.125 µg/mL (≈ 0.106 µM)	≤0.03 µg/mL	0.06 µg/mL (≈ 0.051 µM)	2 µg/mL (≈ 1.7 µM)	0.06 µg/mL (≈ 0.051 µM)	≤0.03 µg/mL	> 500 µg/mL
CCCCCCCCC(=O)N[C@@H](CCN)C(=O)N[C@H](C(=O)N[C@H](CCCN)C(=O)N[C@H]1CCNC(=O)[C@H]([C@@H](C)O)NC(=O)[C@H](CCN)NC(=O)[C@H](CCN)NC(=O)[C@H]([C@@H](C)O)NC(=O)[C@@H](Cc2ccccc2)NC(=O)[C@H](CCN)NC1=O)[C@@H](C)O [Compound 25, Nonanoyl-Dab-Thr-D-Orn-ring(4-10)[Dab-Dab-D-Phe-Thr-Dab-Dab-Thr]] (Nonanoyl-[Dab]T[dOrn][Dab][Dab][dF]T[Dab][Dab]T; lactam 4-C)	0.5 µg/mL (≈ 0.415 µM)	0.125 µg/mL (≈ 0.104 µM)	0.125 µg/mL (≈ 0.104 µM)	≤0.03 µg/mL	0.06 µg/mL (≈ 0.0498 µM)	2 µg/mL (≈ 1.66 µM)	0.06 µg/mL (≈ 0.0498 µM)	≤0.03 µg/mL	338 ± 15.1 µg/mL (≈ 280 µM)
CC[C@H](C)CCCCC(=O)N[C@@H](CCN)C(=O)N[C@H](C(=O)N[C@@H](CCCN)C(=O)N[C@H]1CCNC(=O)[C@H]([C@@H](C)O)NC(=O)[C@H](CCN)NC(=O)[C@H](CCN)NC(=O)[C@H]([C@@H](C)O)NC(=O)[C@@H](Cc2ccccc2)NC(=O)[C@H](CCN)NC1=O)[C@@H](C)O [Compound 26, (S)-6-methyloctanoyl-Dab-Thr-Orn-ring(4-10)[Dab-Dab-D-Phe-Thr-Dab-Dab-Thr]] (X1-[Dab]T[Orn][Dab][Dab][dF]T[Dab][Dab]T; lactam 4-C)	≤0.03 µg/mL	≤0.03 µg/mL	0.125 µg/mL (≈ 0.104 µM)	≤0.03 µg/mL	≤0.03 µg/mL	0.25 µg/mL (≈ 0.207 µM)	0.06 µg/mL (≈ 0.0498 µM)	≤0.03 µg/mL	> 500 µg/mL
CC(C)CCCCC(=O)N[C@@H](CCN)C(=O)N[C@H](C(=O)N[C@@H](CCCN)C(=O)N[C@H]1CCNC(=O)[C@H]([C@@H](C)O)NC(=O)[C@H](CCN)NC(=O)[C@H](CCN)NC(=O)[C@H]([C@@H](C)O)NC(=O)[C@@H](Cc2ccccc2)NC(=O)[C@H](CCN)NC1=O)[C@@H](C)O [Compound 27, 6-methylheptanoyl-Dab-Thr-Orn-ring(4-10)[Dab-Dab-D-Phe-Thr-Dab-Dab-Thr]] ({Heptanoyl(6-Me)}-[Dab]T[Orn][Dab][Dab][dF]T[Dab][Dab]T; lactam 4-C)	≤0.03 µg/mL	≤0.03 µg/mL	0.125 µg/mL (≈ 0.105 µM)	≤0.03 µg/mL	≤0.03 µg/mL	0.25 µg/mL (≈ 0.21 µM)	0.06 µg/mL (≈ 0.0504 µM)	≤0.03 µg/mL	> 500 µg/mL
CCCCCCCC(=O)N[C@@H](CCN)C(=O)N[C@H](C(=O)N[C@@H](CCCN)C(=O)N[C@H]1CCNC(=O)[C@H]([C@@H](C)O)NC(=O)[C@H](CCN)NC(=O)[C@H](CCN)NC(=O)[C@H]([C@@H](C)O)NC(=O)[C@@H](Cc2ccccc2)NC(=O)[C@H](CCN)NC1=O)[C@@H](C)O [Compound 28, Octanoyl-Dab-Thr-Orn-ring(4-10)[Dab-Dab-D-Phe-Thr-Dab-Dab-Thr]] (Octanoyl-[Dab]T[Orn][Dab][Dab][dF]T[Dab][Dab]T; lactam 4-C)	≤0.03 µg/mL	≤0.03 µg/mL	0.125 µg/mL (≈ 0.105 µM)	≤0.03 µg/mL	≤0.03 µg/mL	0.25 µg/mL (≈ 0.21 µM)	0.06 µg/mL (≈ 0.0504 µM)	≤0.03 µg/mL	> 500 µg/mL
CCCCCCC(=O)N[C@@H](CCN)C(=O)N[C@H](C(=O)N[C@@H](CCCN)C(=O)N[C@H]1CCNC(=O)[C@H]([C@@H](C)O)NC(=O)[C@H](CCN)NC(=O)[C@H](CCN)NC(=O)[C@H]([C@@H](C)O)NC(=O)[C@@H](Cc2ccccc2)NC(=O)[C@H](CCN)NC1=O)[C@@H](C)O [Compound 29, Heptanoyl-Dab-Thr-Orn-ring(4-10)[Dab-Dab-D-Phe-Thr-Dab-Dab-Thr]] (Heptanoyl-[Dab]T[Orn][Dab][Dab][dF]T[Dab][Dab]T; lactam 4-C)	0.03 µg/mL (≈ 0.0255 µM)	0.03 µg/mL (≈ 0.0255 µM)	0.125 µg/mL (≈ 0.106 µM)	0.03 µg/mL (≈ 0.0255 µM)	0.03 µg/mL (≈ 0.0255 µM)	0.5 µg/mL (≈ 0.425 µM)	0.06 µg/mL (≈ 0.051 µM)	0.03 µg/mL (≈ 0.0255 µM)	> 500 µg/mL
CCCCCCCCC(=O)N[C@@H](CCN)C(=O)N[C@H](C(=O)N[C@@H](CCCN)C(=O)N[C@H]1CCNC(=O)[C@H]([C@@H](C)O)NC(=O)[C@H](CCN)NC(=O)[C@H](CCN)NC(=O)[C@H]([C@@H](C)O)NC(=O)[C@@H](Cc2ccccc2)NC(=O)[C@H](CCN)NC1=O)[C@@H](C)O [Compound 30, Nonanoyl-Dab-Thr-Orn-ring(4-10)[Dab-Dab-D-Phe-Thr-Dab-Dab-Thr]] (Nonanoyl-[Dab]T[Orn][Dab][Dab][dF]T[Dab][Dab]T; lactam 4-C)	0.03 µg/mL (≈ 0.0249 µM)	0.03 µg/mL (≈ 0.0249 µM)	0.125 µg/mL (≈ 0.104 µM)	0.03 µg/mL (≈ 0.0249 µM)	0.03 µg/mL (≈ 0.0249 µM)	0.5 µg/mL (≈ 0.415 µM)	0.06 µg/mL (≈ 0.0498 µM)	0.03 µg/mL (≈ 0.0249 µM)	270 ± 13.1 µg/mL (≈ 224 µM)
CC[C@H](C)CCCCC(=O)N[C@@H](CCN)C(=O)N[C@H](C(=O)N[C@H](CN)C(=O)N[C@H]1CCNC(=O)[C@H]([C@@H](C)O)NC(=O)[C@H](CCN)NC(=O)[C@H](CCN)NC(=O)[C@H](CC(C)C)NC(=O)[C@@H](Cc2ccccc2)NC(=O)[C@H](CCN)NC1=O)[C@@H](C)O [Compound 31, (S)-6-methyloctanoyl-Dab-Thr-D-Dap-ring(4-10)[Dab-Dab-D-Phe-Leu-Dab-Dab-Thr]] (X1-[Dab]T[dDap][Dab][Dab][dF]L[Dab][Dab]T; lactam 4-C)	0.03 µg/mL (≈ 0.0252 µM)	0.03 µg/mL (≈ 0.0252 µM)	0.03 µg/mL (≈ 0.0252 µM)	0.03 µg/mL (≈ 0.0252 µM)	0.03 µg/mL (≈ 0.0252 µM)	0.25 µg/mL (≈ 0.21 µM)	0.03 µg/mL (≈ 0.0252 µM)	0.03 µg/mL (≈ 0.0252 µM)	222 ± 10.2 µg/mL (≈ 186 µM)
CC(C)CCCCC(=O)N[C@@H](CCN)C(=O)N[C@H](C(=O)N[C@H](CN)C(=O)N[C@H]1CCNC(=O)[C@H]([C@@H](C)O)NC(=O)[C@H](CCN)NC(=O)[C@H](CCN)NC(=O)[C@H](CC(C)C)NC(=O)[C@@H](Cc2ccccc2)NC(=O)[C@H](CCN)NC1=O)[C@@H](C)O [Compound 32, 6-methylheptanoyl-Dab-Thr-D-Dap-ring(4-10)[Dab-Dab-D-Phe-Leu-Dab-Dab-Thr]] ({Heptanoyl(6-Me)}-[Dab]T[dDap][Dab][Dab][dF]L[Dab][Dab]T; lactam 4-C)	0.03 µg/mL (≈ 0.0255 µM)	0.03 µg/mL (≈ 0.0255 µM)	0.03 µg/mL (≈ 0.0255 µM)	0.03 µg/mL (≈ 0.0255 µM)	0.03 µg/mL (≈ 0.0255 µM)	0.25 µg/mL (≈ 0.213 µM)	0.03 µg/mL (≈ 0.0255 µM)	0.03 µg/mL (≈ 0.0255 µM)	325 ± 11.7 µg/mL (≈ 277 µM)
